Laboratory results reported in US6472526B1, “Imidazole derivatives having an inhibitory activity for farnesyl transferase and process for preparation thereof” (LG Chemical Ltd., priority 1997, dated 2002).

Key:
Ras farnesyl transferase [1] = target: T1, Ras farnesyl transferase (Rattus norvegicus, UniProt Q02293+Q04631); test: In vivo (cellular) inhibitory activity for Ras farnesyl transferase, Rat2 cell line transformed with fused protein of H-Ras substituted with polybasic lysine domain at C-terminus of K-Ras; type: cell-based
T1 construct: endogenous in cells; host or cells: Rat2 fibroblasts transformed with H-Ras or with an H-Ras/K-Ras C-terminus fusion
Summary of the method: (§1)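 Transformed Rat2 fibroblasts (H-Ras or H-Ras/K-Ras polybasic-tail fusion) treated with compound in 1% DMSO; after 4 h labelled with [35S]methionine 150 μCi/ml for 20 h. Lysates immunoprecipitated with anti-Ras Y13-259, resolved by 13.5% SDS-PAGE and autoradiography; CIC50 = concentration inhibiting 50% of Ras farnesylation from band intensities.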

Ras farnesyl transferase [2] = target: T1, Ras farnesyl transferase; test: In vivo (cellular) inhibitory activity for Ras farnesyl transferase, Rat2 cell line which expresses C-Harvey-Ras protein; type: cell-based
Summary of the method: as §1

Ras farnesyl transferase [3] = target: T2, Ras farnesyl transferase (Homo sapiens, UniProt P49354+P49356); test: In vitro inhibitory activity for Ras farnesyl transferase, H-Ras substrate; type: biochemical
T2 construct: made in house

Ras farnesyl transferase [4] = target: T2, Ras farnesyl transferase; test: In vitro inhibitory activity for Ras farnesyl transferase, K-Ras substrate; type: biochemical
[5] = Rat2 cell line transformed with H-Ras fused with polybasic lysine domain of K-Ras C-terminus, concentration inhibiting 50% of farnesyl bonding, read-out: K-Ras CIC50
[6] = Rat2 cell line expressing C-Harvey-Ras, concentration inhibiting 50% of farnesyl bonding of Ras protein, read-out: H-Ras CIC50
[7] = recombinant farnesyl transferase 4.5 nM, Ras substrate protein 1.5 μM, tritium-farnesylpyrophosphate 0.15 μM, 30 minutes at 37° C., read-out: H-Ras IC50
[8] = in vitro farnesyl transferase assay, K-Ras, read-out: K-Ras IC50

Row | SMILES | IC50 (Ras farnesyl transferase [1]; [5]) | IC50 (Ras farnesyl transferase [2]; [6]) | IC50 (Ras farnesyl transferase [3]; [7]) | IC50 (Ras farnesyl transferase [4]; [8]) | IC50 (Ras farnesyl transferase [1]) | IC50 (Ras farnesyl transferase [2]) | IC50 (Ras farnesyl transferase [3]) | IC50 (Ras farnesyl transferase [4])
1 | O=C(c1cn(Cc2c[nH]cn2)cc1-c1cccc2ccccc12)N1CCC(O)CC1 [Compound 91] | 10000 to 100000 nM | 1000 to 50000 nM | 2150 nM | 100 to 10000 nM |  |  |  | 
2 | O=C1CCN(C(=O)c2cn(Cc3c[nH]cn3)cc2-c2cccc3ccccc23)CC1 [Compound 92] |  |  |  |  | 10000 to 100000 nM | 1000 to 50000 nM | 70 nM | 100 to 10000 nM
3 | O=C(NCCO)c1cn(Cc2c[nH]cn2)cc1-c1cccc2ccccc12 [Compound 93] | 10000 to 100000 nM | 1000 to 50000 nM | 320 nM | 100 to 10000 nM |  |  |  | 
4 | CN(CCO)C(=O)c1cn(Cc2c[nH]cn2)cc1-c1cccc2ccccc12 [Compound 94] | 10000 to 100000 nM | 1000 to 50000 nM | 200 nM | 100 to 10000 nM |  |  |  | 
5 | COCCN(C)C(=O)c1cn(Cc2c[nH]cn2)cc1-c1cccc2ccccc12 [Compound 95] | 10000 to 50000 nM | 10 to 100 nM | 0.7 nM | 100 to 1000 nM |  |  |  | 
6 | O=C(c1cn(Cc2c[nH]cn2)cc1-c1ccnc2ccccc12)N1CCOCC1 [Compound 96] | 10000 to 100000 nM | 1000 to 50000 nM | 230 nM | 100 to 10000 nM |  |  |  | 
7 | O=C(c1cn(Cc2c[nH]cn2)cc1-c1ccc2c3c(cccc13)CC2)N1CCOCC1 [Compound 97] | 10000 to 100000 nM | 10000 to 100000 nM | 12000 nM | 10000 to 100000 nM |  |  |  | 
8 | N#Cc1ccc(CNC(=O)c2cn(Cc3c[nH]cn3)cc2-c2cccc3ccccc23)cc1 [Compound 98] | 10000 to 100000 nM | 1000 to 50000 nM | 900 nM | 100 to 10000 nM |  |  |  | 
9 | CSCC[C@H](NC(=O)c1cn(Cc2cncn2Cc2ccc(C#N)cc2)cc1-c1cccc2ccccc12)C(=O)O [Compound 101, (S)-1-[1-(4-Cyanobenzyl)-1H-imidazol-5-yl]methyl-3-[N-(1-hydroxycarbonyl-3-methylthio)propyl]carbamoyl-4(naphthalen-1-yl)-1H-pyrrole] | > 50000 nM | > 5000 nM | 10 nM | 800 nM |  |  |  | 
10 | COC(=O)[C@H](CC(C)C)NC(=O)c1cn(Cc2cncn2Cc2ccc(C#N)cc2)cc1-c1cccc2ccccc12 [Compound 102] | > 50000 nM | 1000 to 50000 nM | 450 nM | 22000 nM |  |  |  | 
11 | CC(C)C[C@H](NC(=O)c1cn(Cc2cncn2Cc2ccc(C#N)cc2)cc1-c1cccc2ccccc12)C(=O)O [Compound 103] | 10000 to 100000 nM | 100 to 10000 nM | 64 nM | 1700 nM |  |  |  | 
12 | N#Cc1ccc(Cn2cncc2Cn2cc(C(=O)N3CCOCC3)c(-c3cccc4ccccc34)c2)cc1 [Compound 104] | < 10000 nM | < 50 nM | 0.5 nM | 6 nM |  |  |  | 
13 | CN1CCN(C(=O)c2cn(Cc3cncn3Cc3ccc(C#N)cc3)cc2-c2cccc3ccccc23)CC1 [Compound 105] | > 50000 nM | 50 nM | 0.4 nM | 90 nM |  |  |  | 
14 | O=C(c1cn(CCn2ccnc2)cc1-c1cccc2ccccc12)N1CCOCC1 [Compound 106] | 10000 to 100000 nM | 1000 to 50000 nM | 900 nM | 10000 to 100000 nM |  |  |  | 
15 | COC(=O)[C@H](CCSC)NC(=O)c1cn(CCCc2c[nH]cn2)cc1-c1cccc2ccccc12 [Compound 107, (S)-1-[3-(1H-Imidazol-4-yl)propyl]-3-[1N-(1-methoxycarbonyl-3-methylthio)propyl]carbamoyl-4-(naphthalen-1-yl)-1H-pyrrole] | 10000 to 100000 nM | 1000 to 50000 nM | 10000 nM | 100 to 10000 nM |  |  |  | 
16 | CSCC[C@H](NC(=O)c1cn(CCCc2c[nH]cn2)cc1-c1cccc2ccccc12)C(=O)O [Compound 108] | 10000 to 100000 nM | 1000 to 50000 nM | 260 nM | 100 to 10000 nM |  |  |  | 
17 | O=C(c1cn(CCCc2c[nH]cn2)cc1-c1cccc2ccccc12)N1CCOCC1 [Compound 109] | 10000 to 100000 nM | 1000 to 50000 nM | 8600 nM | 1000 to 50000 nM |  |  |  | 
18 | COCCN(C)C(=O)c1cn(Cc2cncn2Cc2ccc(Br)cc2)cc1-c1cccc2ccccc12 [Compound 111, 1-[1-(4-Bromobenzyl)-1H-imidazol-5-yl]methyl-3-[N-(2-methoxyethyl)-N-methyl]carbamoyl-4-(naphthalen-1-yl)-1H-pyrrole] | 4000 nM | 30 nM | 2 nM | 2 nM |  |  |  | 
19 | N#Cc1ccc(Cn2cncc2Cn2cc(C(=S)N3CCOCC3)c(-c3cccc4ccccc34)c2)cc1 [Compound 113, 1-[1-(4-Cyanobenzyl)-1H-imidazol-5-yl]methyl-3-(morpholin-4-yl)thiocarbonyl-4-(naphthalen-1-yl)-1H-pyrrole] | 10000 to 100000 nM | < 100 nM | 4 nM | < 100 nM |  |  |  | 
20 | COCCN(C)C(=O)c1cn(Cc2cncn2C)cc1-c1cccc2ccccc12 [Compound 114, 3-[N-(2-Methoxyethyl)-N-methyl]carbamoyl-1-(1-methyl-1H-imidazol-5-yl)methyl-4-(naphthalen-1-yl)-1H-pyrrole] | < 100000 nM | 15 nM | 1 nM | 100 nM |  |  |  | 
21 | COCCN(C)C(=O)c1cn(Cc2cncn2CC(C)C)cc1-c1cccc2ccccc12 [Compound 115, 1-(1-Isobutyl-1H-imidazol-5-yl)methyl-3-[N-(2-methoxyethyl)-N-methyl]carbamoyl-4-(naphthalen-1-yl)-1H-pyrrole] | < 50000 nM | 25 nM | 2 nM | 35 nM |  |  |  | 
22 | COCCN(C)C(=O)c1cn(Cc2cncn2CC2CCCCC2)cc1-c1cccc2ccccc12 [Compound 116, 1-(1-Cyclohexylmethyl-1H-imidazol-5-yl)methyl-3-[N-(2-methoxyethyl)-N-methyl]carbamoyl-4-(naphthalen-1-yl)-1H-pyrrole] | < 50000 nM | 30 nM | 4 nM | 62 nM |  |  |  | 
23 | CN1CCN(C(=O)c2cn(Cc3cncn3Cc3ccc(Br)cc3)cc2-c2cccc3ccccc23)CC1 [Compound 125, 1-[1-(4-Bromobenzyl)-1H-imidazol-5-yl]methyl-3-[4-methylpiperazin-1-yl]carbonyl-4-(naphthalen-1-yl)-1H-pyrrole] | 4000 nM | 6 nM | 2 nM | 4 nM |  |  |  | 
24 | CN1CCN(C(=O)c2cn(Cc3cncn3Cc3ccc(Cl)cc3)cc2-c2cccc3ccccc23)CC1 [Compound 126, 1-[1-(4-Chlorobenzyl)-1H-imidazol-5-yl]methyl-3-[4-methylpiperazin-1-yl]carbonyl-4-(naphthalen-1-yl)-1H-pyrrole] | 5000 nM | 12 nM | 1 nM | 4 nM |  |  |  | 
25 | COCCN(C)C(=O)c1cn(Cc2cncn2Cc2ccc(F)cc2)cc1-c1cccc2ccccc12 [Compound 127, 1-[1-(4-fluorobenzyl)-1H-imidazol-5-yl]methyl-3[N-(2-methoxyethyl)-N-methyl]carbamoyl-4-(naphthalen-1-yl)-1H-pyrrole] | 5000 nM | 15 nM | 2 nM | 5 nM |  |  |  | 
26 | CN1CCN(C(=O)c2cn(Cc3cncn3Cc3ccc(F)cc3)cc2-c2cccc3ccccc23)CC1 [Compound 128, 1-[1-(4-fluorobenzyl)-1H-imidazol-5-yl]methyl-3-[4-methylpiperazin-1-yl]carbonyl-4-(naphthalen-1-yl)-1H-pyrrole] | 5000 nM | 10 nM | 2 nM | 10 nM |  |  |  | 
